Assay results published in patent US4294833A, “Substituted 4-hydroxy-isophthalic acid picolylamides having a pharmaceutical activity in thromboembolic disorders” (Societa Italo-Britannica, priority 1977, dated 1981).

What was measured:
[1] = Acute toxicity, intraperitoneal; details: mouse, in vivo, ip, male Swiss mice, intraperitoneal, 7 days observation; preliminary, by graphic interpolation; read-out: acute toxicity (LD50 / DL50)
Method: The acute toxicity limit was determined intraperitoneally on male Swiss mice, weighing 20±2 g, held fasting for 18 hours with water ad libitum.
The animals were maintained under observation for 7 days of treatment, by examining the general symptomatology and noting the death sequency. The preliminary DL50 in mg/kg body weight was calculated by graphic interpolation of the results as obtained.
(§1) In tables I and II are further indicated for each compound the method of preparation; the melting point PF in °C; the platelet antiaggregant activity (AAP) expressed in terms of DI50 in mg/kg, referred to ADP and thrombin respectively; the antithrombin activity (AT) in %; the anticoagulant activity (AC) in %; the fibrinolytic activity (FL) in %; the acute toxicity (LD50) in mice, intraperitoneally, in mg/kg, as previously defined.

blood coagulum = test: Fibrinolytic activity, Fearnley method (lysis of blood coagulum in toto); type: in vivo; details: Oryctolagus cuniculus, ip, 0.5 h, percent decrease of coagulum weight after 30 minutes at 37° C.; 25 mg/kg intraperitoneal, rabbits; read-out: fibrinolytic activity (FL)
Method: Determination of the fibrinolytic activity
The determination of the fibrinolytic activity was made following the Fearnley method for the lysis of the blood coagulum in toto.
0.2 ml of blood were withdrawn from the marginal vein of the ear of rabbits treated in the same way as the previously described tests, before and after an intraperitoneal injection of the compounds under test at a dose level of 25 mg/kg for each compound.
The blood samples were placed in test tubes containing 1.7 ml of phosphate buffer at pH 7.4 and 0.1 ml of thrombin (Roche Topostasin ® per os) at 50 units NIH/ml, and maintained in an ice bath. The test tubes were maintained at said temperature for 30 minutes and thereupon were transferred to a temperature controlled water bath at 37° C.
The fibrinolytic activity was determined as a percent decrease of the coagulum weight, measured after incubation for 30 minutes at 37° C.
as §1

[2] = test system: thrombin-induced coagulation of platelet rich plasma; test: Antithrombin activity on PRP, Hartert's thromboelastograph; type: in vivo, New Zealand rabbits; details: Oryctolagus cuniculus, Platelet, ip, percent decrease of index ma/[r+k] vs before treatment; 20 mg/kg intraperitoneal, rabbits
Method: Determination of the antithrombin activity
The antithrombin activity on the PRP (platelet rich plasma) obtained following the above described method was assessed by Hartert's thromboelastograph (Hellige model). The coagulation was induced by adding to 0.25 ml of plasma 0.06 ml of a thrombin solution (Roche Topostasin® per os) at 60 units*, pH 7.4**. The antithrombin activity was assessed in terms of a percent decrease of the index (ma/[r+k]) which was calculated from the thromboelastograph diagram, wherein r is the reaction time, k is the speed of the coagulum formation and ma is the maximum spread of the tong, after an intraperitoneal treatment with a dose of 20 mg/kg of each compound under examination, referred to the same index obtained before the treatment (control).
as §1

[3] = test system: platelet aggregation induced by ADP; test: Platelet aggregation inhibitory activity in vivo (Born aggregometer), ADP-induced; design: species or system New Zealand rabbits; details: Oryctolagus cuniculus, Platelet, ip, dose for 50% inhibition of ADP-induced aggregation curve; rabbits, intraperitoneal, blood 2, 4 and 6 hours after injection; read-out: platelet antiaggregant activity (AAP), DI50, ADP
Method: (§2) Determination of the platelet aggregation inhibitory activity in vivo
(§3) The activity of the above described compounds as platelet antiaggregant was tested in vivo on rabbits, by the Born aggregometer. The inhibition of the aggregation curve induced by ADP and thrombin was assessed with different drug concentrations according to the platelet reactivity. New Zealand rabbits which had been held fasting for 12 hours with water ad libitum, were anaesthetized with Nembutal in a dose of 35 mg/kg intramuscolarly. The blood was withdrawn from the carotidal arthery, before (control) and 2, 4, and 6 hours after the intraperitoneal injection of the compounds under examination (at the dose indicated below). The blood samples were taken up in a 3.8% aqueous solution of sodium citrate in a ratio 10:1 and thereupon centrifuged at 1500 r.p.m. for 10 minutes, for obtaining a PRP (platelet rich plasma). A portion of such a plasma was thereupon centrifuged at 8000 r.p.m. for 10 minutes, for obtaining a PPP (platelet lean plasma) which was used for zeroing the measuring apparatus.
(§4) From the results of said experiments, there was determined the dose of each product in mg/kg body weight able to induce a 50% inhibition of the aggregation curve (DI50) after treatment, referred to the curve obtained by the same control plasma before treatment.
as §1

[4] = test system: CaCl2-induced plasma coagulation; test: Anticoagulant activity on PRP, Hartert's thromboelastograph; type: in vivo, New Zealand rabbits; details: Oryctolagus cuniculus, ip, percent increase of total time for coagulum formation (r+k) vs before treatment; 25 mg/kg intraperitoneal, rabbits; read-out: anticoagulant activity (AC)
Method: Determination of the anticoagulant activity
The anticoagulant activity was also assessed on PRP of animals treated as described in the preceding methods, by using again Hartert's thromboelastograph method.
The plasma coagulation was induced by adding to 0.25 ml PRP a 1.29% solution of CaCl2.
The anticoagulant effect was determined as a percent increase of the total time for the coagulum formation (the index r+k can be obtained from the thromboelastograph diagram) in a plasma after treatment, referred to the same index obtained before the treatment (control). Again the dose level was 25 mg/kg for each compound under examination, intraperitoneally.
as §1

[5] = test system: platelet aggregation induced by thrombin; test: Platelet aggregation inhibitory activity in vivo (Born aggregometer), thrombin-induced; design: species or system New Zealand rabbits; details: Oryctolagus cuniculus, Platelet, ip, dose for 50% inhibition of thrombin-induced aggregation curve; rabbits, intraperitoneal, blood 2, 4 and 6 hours after injection; read-out: platelet antiaggregant activity (AAP), DI50, Thrombin
Method: as §2, §3, §4, §1

Row | Compound | LD50 at 168 h [1] [mg/kg] | fibrinolytic activity (percent decrease of coagulum weight) at 25 mg/kg (blood coagulum) [%] | inhibition in vivo at 20 mg/kg [2] [%] | ED50 [3] [mg/kg] | change in vivo at 25 mg/kg [4] [%] | ED50 [5] [mg/kg]
1 | COc1ccc(C(=O)NCc2ccncc2)cc1C(=O)NCc1ccncc1 [Example 58] | 704 | 31.7 | 37 | 28.1 | 18.2 | 21.3
2 | CCC(C)Oc1ccc(C(=O)NCc2cccnc2)cc1C(=O)NCc1cccnc1 (stereo not drawn) [Example 14] | 227 | 22.5 | 38.1 | 46.4 | 22.3 | 29.7
3 | CCOc1ccc(C(=O)N(Cc2cccnc2)CC(C)C)cc1C(=O)N(Cc1cccnc1)CC(C)C [Example 44] | 465 | 32.5 | 38.6 | 28.7 | 19.3 | 20.9
4 | C=CCOc1c(Cl)cc(C(=O)NCc2ccncc2)cc1C(=O)NCc1ccncc1 [Example 67] | 187 | 27.1 | 39.8 | 55.6 | 14.6 | 34.2
5 | CCOc1ccc(C(=O)N(CCCC(C)C)Cc2cccnc2)cc1C(=O)N(CCCC(C)C)Cc1cccnc1 [Example 46] | 451 | 29.1 | 32.7 | 34.3 | 15.5 | 24.7
6 | COc1ccc(C(=O)N(C)Cc2cccnc2)cc1C(=O)N(C)Cc1cccnc1 [Example 39] | 610 | 19.2 | 26.6 | 59.8 | 12.5 | 42
7 | CCCCCOc1c(Cl)cc(C(=O)NCc2cccnc2)cc1C(=O)NCc1cccnc1 [Example 24] | 371 | 6.4 | 24.4 | 41.3 | 16 | 35.6
8 | C#CCOc1ccc(C(=O)NCc2cccnc2)cc1C(=O)NCc1cccnc1 [Example 22] | 382 | 29.2 | 33.1 | 36.5 | 13.6 | 24.4
9 | CC(C)CCOc1ccc(C(=O)NCc2ccncc2)cc1C(=O)NCc1ccncc1 [Example 63] | 185 | 23.2 | 29.2 | 42.9 | 22.6 | 28.4
10 | CC(C)Oc1ccc(C(=O)NCc2cccnc2)cc1C(=O)NCc1cccnc1 [Example 12] | 615 | 20.2 | 25.6 | 50.2 | 12.7 | 30.9
11 | CCCOc1ccc(C(=O)NCc2ccncc2)cc1C(=O)NCc1ccncc1 [Example 59] | 623 | 32.8 | 39.1 | 25.2 | 20.6 | 18.1
12 | CC(C)=COc1ccc(C(=O)NCc2cccnc2)cc1C(=O)NCc1cccnc1 [Example 55] | 338 | 29.5 | 32.5 | 28.2 | 19.2 | 20.5
13 | O=C(NCc1cccnc1)c1cc(C(=O)NCc2cccnc2)c(O)c([N+](=O)[O-])c1 [Example 31] | 345 | 20.5 | 23.1 | 36.6 | 13.6 | 27
14 | CC=COc1c(Cl)cc(C(=O)N(Cc2cccnc2)CC(C)(C)C)cc1C(=O)N(Cc1cccnc1)CC(C)(C)C [Example 48] | 207 | 20.1 | 27.6 | 50.3 | 14.4 | 31.9
15 | CC=COc1c(Cl)cc(C(=O)N(CCCCC)Cc2cccnc2)cc1C(=O)N(CCCCC)Cc1cccnc1 [Example 51] | 205 | 26.1 | 28.2 | 51.6 | 15.7 | 32.4
16 | CC=COc1c(Cl)cc(C(=O)N(Cc2cccnc2)C(CC)CC)cc1C(=O)N(Cc1cccnc1)C(CC)CC [Example 50] | 198 | 24.6 | 27.6 | 52.2 | 13.8 | 33.8
17 | COc1cc(C(=O)NCc2cccnc2)cc(C(=O)NCc2cccnc2)c1OC1CCC1 [Example 19] | 254 | 28.1 | 32.8 | 34.7 | 15.6 | 25.2
